Values of other authors, collected in patent EP2933251A1, “PHARMACEUTICAL COMPOSITION USABLE FOR THE TREATMENT OF A PATHOLOGY OF THE FOOT OF A HOOFED MAMMAL” (Weyts, Peter, priority 2014, dated 2015).

Tested on: vaisseaux sanguins du sabot du cheval
Details: as stated in WO 2006/100468 A1

## CC(=O)N[C@@H](CS)C(=O)O [N-acétylcystéine]
  contraction des vaisseaux sanguins du sabot du cheval: permet de réduire la contraction des vaisseaux sanguins du sabot du cheval
